Results on 17 molecules are retold here after ChEMBL document CHEMBL1123495, “Assessment of a potential dopaminergic prodrug moiety in several ring systems” (1986).

One experiment relates to Dopamine receptor. The settings on record: Felis catus.
In experiment [1] the test system is Felis catus. Nature of the experiment: Compound was tested for inhibition of chronotropic stimulation response on the cardioaccelerator nerve in cat at the concentration > 3.0 uM/kg; Inactive. In kind it is functional, organism-based.
Experiment [2] relates to Rattus norvegicus. Nature of the experiment: Compound was tested for induction of contralateral turning behavior with unilateral lesions of the nigrostriatal pathway in rat, activity expressed as potency ratio to apomorphine; Inactive up to 11.7 umol/kg. In kind it is functional, organism-based.
Experiment [3] concerns Rattus norvegicus. Nature of the experiment: Compound was tested for induction of contralateral turning behavior with unilateral lesions of the nigrostriatal pathway in rat, activity expressed as potency ratio to apomorphine; Inactive up to 16.9 umol/kg. In kind it is functional, organism-based.
For experiment [4], the species on record is Felis catus. Nature of the experiment: Compound was tested for inhibition of chronotropic stimulation response on the cardioaccelerator nerve in cat. The experiment is classed as functional. The settings on record: read-out: ID50 (the source's name).
The species named for experiment [5] is Rattus norvegicus. Nature of the experiment: Compound was tested for induction of contralateral turning behavior with unilateral lesions of the nigrostriatal pathway in rat, activity expressed as potency ratio to apomorphine. In kind it is functional.
Experiment [6] deals with Rattus norvegicus. Nature of the experiment: Compound was tested for induction of contralateral turning behavior with unilateral lesions of the nigrostriatal pathway in rat, activity expressed as potency ratio to apomorphine; Inactive up to 12.19 umol/kg. The experiment is classed as functional, organism-based.
Experiment [7] is filed under the species Rattus norvegicus. Nature of the experiment: Compound was tested for induction of contralateral turning behavior with unilateral lesions of the nigrostriatal pathway in rat by haloperidol; Significant at p< 0.05. The experiment is classed as functional, organism-based.
The subject of experiment [8] is Rattus norvegicus. Nature of the experiment: Compound was tested for induction of contralateral turning behavior with unilateral lesions of the nigrostriatal pathway in rat, activity expressed as potency ratio to apomorphine; Inactive up to 13.3 umol/kg. The experiment is classed as functional, organism-based.
The test system of experiment [9] is Rattus norvegicus. Nature of the experiment: Compound was tested for induction of contralateral turning behavior with unilateral lesions of the nigrostriatal pathway in rat, activity expressed as potency ratio to apomorphine; Inactive up to 13.9 umol/kg. In kind it is functional, organism-based.
Experiment [10] has as its system Rattus norvegicus. Nature of the experiment: Compound was tested for induction of contralateral turning behavior with unilateral lesions of the nigrostriatal pathway in rat, activity expressed as potency ratio to apomorphine; Inactive in inducing turns up to 12.1 umol/kg. The experiment is classed as functional, organism-based.
Experiment [11] is filed under the species Rattus norvegicus. Nature of the experiment: Compound was tested for induction of contralateral turning behavior with unilateral lesions of the nigrostriatal pathway in rat by haloperidol; NS= Not significant. In kind it is functional, organism-based.
Experiment [12] deals with Rattus norvegicus. Nature of the experiment: Compound was tested for induction of contralateral turning behavior with unilateral lesions of the nigrostriatal pathway in rat, activity expressed as potency ratio to apomorphine; Inactive up to 12.3 umol/kg. The experiment is classed as functional, organism-based.
For experiment [13], the species on record is Felis catus. Nature of the experiment: Compound was tested for antagonism of apomorphine induced inhibition of the tachycardia produced by stimulation of the right cardioaccelerator nerve in cat. The experiment is classed as functional.

Each structure is given as a SMILES string. Calls of active or inactive are those of the source. The calls are words filed in the database; no cut-off is given here.

`CCCN(CCC)C1Cc2ccc(C=O)c(O)c2C1` (centres undefined): the AD50 result in the experiment with Dopamine receptor is “inactive”. In addition, in the experiment with Felis catus [1], the ID50 entry was “inactive”. The Potency ratio result in the experiment with Rattus norvegicus [2] is “inactive”.

In the case of `CCCN(CCC)CCc1ccc(C)c(O)c1`, in the experiment with Dopamine receptor, the AD50 result is “inactive”. In addition, in the experiment with Felis catus [1], the ID50 entry is “inactive”. Further, the Potency ratio result in the experiment on Rattus norvegicus [3] is “inactive”.

On to `CCCN(CCC)C1CCc2c(ccc(C=O)c2O)C1` (centres undefined), for which the AD50 result in the experiment on Dopamine receptor is “inactive”. Moreover, the ED50 in the experiment filed under Felis catus [4] amounted to 0.13 µmol/kg. The Potency ratio in the experiment filed under Rattus norvegicus [5] worked out at 0.07.

For the molecule `CCCN(CCC)CCc1ccc(CO)c(O)c1`, the AD50 result in the experiment on Dopamine receptor was “inactive”. In the experiment on Felis catus [1], the ID50 result is “inactive”. In addition, the Potency ratio result in the experiment on Rattus norvegicus [6] is “inactive”.

Regarding `CCCN(CCC)C1Cc2ccc(C(=O)O)c(O)c2C1` (centres undefined), the AD50 result in the experiment with Dopamine receptor was “inactive”. Besides, the ED50 in the experiment filed under Felis catus [4] was 3.18 µmol/kg.

For the molecule `CCCN(CCC)C1Cc2ccc(CO)c(O)c2C1` (centres undefined), the Antagonism result in the experiment filed under Rattus norvegicus [7] was “Active”. For the same molecule, the AD50 result with Dopamine receptor was “inactive”. The ED50 in the experiment filed under Felis catus [4] came out at 0.12 µmol/kg. The Potency ratio in the experiment listed under Rattus norvegicus [5] stood at 0.33.

Take `CCCN(CCC)C1Cc2ccc(C)c(O)c2C1` (centres undefined): in the experiment listed under Rattus norvegicus [7], the Antagonism result is “Active”. For the same molecule, the AD50 result in the experiment with Dopamine receptor was “inactive”. Besides, in the experiment filed under Felis catus [4], the ED50 was found to be 0.89 µmol/kg. Further, the Potency ratio in the experiment listed under Rattus norvegicus [5] was 0.3.

Turning to `CCCN(CCC)C1CCc2c(ccc(C)c2O)C1` (centres undefined), the AD50 result in the experiment on Dopamine receptor is “inactive”. Further, the ED50 in the experiment listed under Felis catus [4] was 0.06 µmol/kg. Also, the Potency ratio in the experiment listed under Rattus norvegicus [5] was determined as 0.39.

On to `CCCN(CCC)CCc1ccc(C=O)c(O)c1`, for which the Antagonism result in the experiment filed under Rattus norvegicus [7] was “Active”. In the experiment on Dopamine receptor, the AD50 entry is “inactive”. For the same molecule, the ID50 entry in the experiment with Felis catus [1] was “inactive”. Besides, the Potency ratio result in the experiment on Rattus norvegicus [8] was “inactive”.

As for `CCCN(CCC)C1CCc2c(ccc(CO)c2O)C1` (centres undefined), in the experiment with Dopamine receptor, the AD50 result is “inactive”. In addition, the ED50 in the experiment filed under Felis catus [4] came to 0.03 µmol/kg. The Potency ratio in the experiment listed under Rattus norvegicus [5] came out at 0.93.

`CCCN(CCC)CCc1ccc(C(=O)O)c(O)c1`: the AD50 result in the experiment on Dopamine receptor is “inactive”. For the same molecule, the ID50 result in the experiment with Felis catus [1] was “inactive”. For the same molecule, in the experiment on Rattus norvegicus [9], the Potency ratio entry is “inactive”.

As for `CCCN(CCC)C1CCc2c(ccc(C(=O)O)c2O)C1` (centres undefined), the AD50 entry with Dopamine receptor is “inactive”. Also, the ID50 entry with Felis catus [1] is “inactive”. Also, the Potency ratio result with Rattus norvegicus [10] was “inactive”.

For `CCCN1CCC[C@H]2c3ccc(C=O)c(O)c3CC[C@@H]21`, the Antagonism result in the experiment filed under Rattus norvegicus [11] was “inactive”. The AD50 result in the experiment on Dopamine receptor is “inactive”. In addition, the ED50 in the experiment listed under Felis catus [4] worked out at 1.81 µmol/kg. In addition, the Potency ratio in the experiment listed under Rattus norvegicus [5] was determined as 0.38.

Regarding `CCCN1CCC[C@H]2c3ccc(C(=O)O)c(O)c3CC[C@@H]21`, the AD50 result with Dopamine receptor was “inactive”. The ID50 entry with Felis catus [1] is “inactive”. The Potency ratio result in the experiment with Rattus norvegicus [12] was “inactive”.

For `CCCN1CCC[C@H]2c3ccc(C)c(O)c3CC[C@@H]21`, the ID50 result with Felis catus [1] was “inactive”. In the experiment filed under Rattus norvegicus [5], the Potency ratio came to 0.68. The molecule further gave an AD50 in the experiment listed under Felis catus [13] of 0.44 µM/kg.

Consider `CCCN1CCC[C@H]2c3ccc(CO)c(O)c3CC[C@@H]21`, for which the Antagonism result in the experiment listed under Rattus norvegicus [7] is “Active”. Further, the AD50 result in the experiment with Dopamine receptor is “inactive”. In addition, the ID50 result in the experiment on Felis catus [1] is “inactive”. For the same molecule, in the experiment listed under Rattus norvegicus [5], the Potency ratio is recorded as 0.07.

Turning to `CN1CCc2cccc3c2[C@H]1Cc1ccc(O)c(O)c1-3` [APOMORPHINE], in the experiment filed under Rattus norvegicus [7], the Antagonism result is “Active”. Moreover, the ED50 in the experiment listed under Felis catus [4] was found to be 0.022 µmol/kg.
